Experimental data from ChEMBL document CHEMBL1201862, “PubChem BioAssay data set” (2004).
Active and inactive are the calls of the source.

Tests used:
[1] = target: T1, fMet-Leu-Phe receptor (Homo sapiens, UniProt P21462); assay: FPR ligands, dose response (AID 519); format: functional
T1 sequence (P21462 whole entry): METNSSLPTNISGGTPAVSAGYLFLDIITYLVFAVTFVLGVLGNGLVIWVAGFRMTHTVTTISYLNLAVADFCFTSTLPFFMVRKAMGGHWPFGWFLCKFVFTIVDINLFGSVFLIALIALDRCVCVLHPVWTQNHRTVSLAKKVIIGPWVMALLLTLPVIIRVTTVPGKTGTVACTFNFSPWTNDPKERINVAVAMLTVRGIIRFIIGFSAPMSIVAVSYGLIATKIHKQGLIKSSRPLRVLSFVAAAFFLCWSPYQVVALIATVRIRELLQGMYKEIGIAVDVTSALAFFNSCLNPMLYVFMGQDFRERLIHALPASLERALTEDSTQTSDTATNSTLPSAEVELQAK

[2] = target: Cytochrome P450 3A4 (Homo sapiens, UniProt P08684); details: Potency;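 note: confirmatory qHTS run detecting inhibitors and substrates of CYP3A4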
[3] = THP-1 cell cytotoxicity, dose response, cytotoxicity control for Vif-APOBEC3G degradation inhibitor project, THP-1 cells (AID 1117359); format: functional; details: Human immunodeficiency virus 1, THP-1
[4] = A cytotoxicity screen of small molecule inhibitors of the PhoP region in Salmonella typhi identified in the primary screen. [Related pubchem assays: 1850, 1864, 1985 ]; format: functional
[5] = inhibitors of firefly luciferase expression or activity, dose response, H4 neuroglioma cells, luminescence (AID 1990); format: functional, cell-based
[6] = Luminescence Cell-Based Dose Response HTS to Identify Inhibitors of 5'UTR Stem-Loop Driven Prion Protein mRNA Translation in H4 Neuroglioblastoma Cells. [Related pubchem assays: 1827 (Project Summary), 1813 (Primary HTS)]; format: functional
[7] = target: T2, Heat shock factor protein 1 (Mus musculus, UniProt P38532); assay: inhibition of MG132-induced HSE-luciferase signal, confirmation, cell-based, NIH3T3, luminescence, dose retest (AID 2382); format: functional;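 note: NIH3T3 fibroblasts with HSF1-driven luciferase reporter stressed by proteasome inhibitor MG132; luminescence from HSF1-driven luciferase expression after 8 hours of MG132 stress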
T2 sequence (P38532 whole entry): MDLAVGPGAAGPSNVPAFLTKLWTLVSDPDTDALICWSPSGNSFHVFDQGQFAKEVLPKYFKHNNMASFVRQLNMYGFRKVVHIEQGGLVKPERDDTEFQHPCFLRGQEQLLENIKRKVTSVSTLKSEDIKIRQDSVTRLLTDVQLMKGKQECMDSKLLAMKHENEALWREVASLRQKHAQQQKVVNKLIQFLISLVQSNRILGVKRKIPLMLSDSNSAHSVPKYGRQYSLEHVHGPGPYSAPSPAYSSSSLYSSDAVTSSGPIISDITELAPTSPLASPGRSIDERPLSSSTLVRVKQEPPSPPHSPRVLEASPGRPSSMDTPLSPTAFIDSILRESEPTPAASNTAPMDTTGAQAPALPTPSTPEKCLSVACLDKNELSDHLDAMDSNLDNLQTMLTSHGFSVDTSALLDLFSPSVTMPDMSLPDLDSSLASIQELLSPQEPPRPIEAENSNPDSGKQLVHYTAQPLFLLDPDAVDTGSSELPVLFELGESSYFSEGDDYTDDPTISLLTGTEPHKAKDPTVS

[8] = inhibitors of SNCA 5'UTR-driven reporter translation, confirmation, H4 neuroglioma cells, luminescence (AID 1988); format: functional, cell-based
[9] = target: Luciferin 4-monooxygenase (Photinus pyralis, UniProt P08659); assay: firefly luciferase enzyme inhibitors, dose response, biochemical, luminescence (AID 1891)
[10] = Luminescence Cell-Based Dose Confirmation HTS to Identify Inhibitors of Platelet Dense Granule Release. [Related pubchem assays: 1663 (Primary HTS), 1678 (Summary of Project)]; format: functional
[11] = A549 cell cytotoxicity, dose response, cytotoxicity control, plate reader, cherry-pick, antagonist series (AID 743412); format: functional, cell-based
[12] = LGR2 antagonists, dose response, cell-based, HEK293, CRE-luciferase reporter, cherry pick, set 2 (AID 743343); format: functional;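 note: transfected cells were stimulated with diluted bursicon conditioned medium after compound addition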
[13] = MC4R antagonists, dose response, counter-screen for LGR2 antagonist project, cell-based, plate reader, cherry pick (AID 743444); format: functional;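 note: transfected HEK 293 cells stimulated with alpha-MSH peptide; potency of inhibitors of the alpha-MSH evoked signal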
[14] = HEK293 cell cytotoxicity, dose response, cytotoxicity control, plate reader, cherry-picked samples (AID 743446); format: functional, cell-based
[15] = test system: Streptococcus sp. 'group A'; assay: growth inhibition of control SK(-) GAS strain, dose response, counter-screen for streptokinase expression inhibitor project, luminescence, kanamycin, BacTiterGlo, confirmation (AID 1900); format: functional, organism-based
[16] = target: T3, Streptokinase A (Streptococcus pyogenes serotype M1, UniProt P10520); assay: S. pyogenes streptokinase expression inhibitors, potency, dose response, plasminogen activation absorbance, OD405 (AID 1914); format: functional, Streptococcus pyogenes M1 GAS;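 note: secreted streptokinase activity via plasminogen activation per viability signal from cell pellet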
T3 sequence (P10520 whole entry): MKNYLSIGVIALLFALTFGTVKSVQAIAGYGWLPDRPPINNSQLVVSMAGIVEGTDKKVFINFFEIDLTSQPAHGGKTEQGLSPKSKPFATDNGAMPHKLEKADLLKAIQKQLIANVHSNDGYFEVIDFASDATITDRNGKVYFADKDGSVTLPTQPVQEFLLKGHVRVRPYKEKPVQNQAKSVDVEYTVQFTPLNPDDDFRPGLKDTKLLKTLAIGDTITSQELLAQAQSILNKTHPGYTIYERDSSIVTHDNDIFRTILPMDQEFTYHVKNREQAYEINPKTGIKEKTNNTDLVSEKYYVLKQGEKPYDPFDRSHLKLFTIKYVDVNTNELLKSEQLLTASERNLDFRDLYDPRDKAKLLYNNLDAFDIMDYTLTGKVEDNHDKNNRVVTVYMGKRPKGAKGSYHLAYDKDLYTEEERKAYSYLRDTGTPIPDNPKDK

[17] = test system: Streptococcus; assay: Group A Streptococcus viability loss, dose response, counter-screen for streptokinase expression inhibitor project, luminescence, BacTiterGlo (AID 1915); format: functional, organism-based;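 note: potency for reduction of bacterial viability or growth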
[18] = test system: HeLa; assay: HeLa cell cytotoxicity, dose response, cytotoxicity control, 24 h, cherry-picked samples (AID 504726); format: functional, cell-based; details: Homo sapiens;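 note: potency for cytotoxicity as loss of luminescence signal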
[19] = target: T4, X-box-binding protein 1 (Homo sapiens, UniProt P17861); format: functional, Cricetulus griseus;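 note: confirmatory dose-response counter-screen serving a CHOP assay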
T4 sequence (P17861 whole entry): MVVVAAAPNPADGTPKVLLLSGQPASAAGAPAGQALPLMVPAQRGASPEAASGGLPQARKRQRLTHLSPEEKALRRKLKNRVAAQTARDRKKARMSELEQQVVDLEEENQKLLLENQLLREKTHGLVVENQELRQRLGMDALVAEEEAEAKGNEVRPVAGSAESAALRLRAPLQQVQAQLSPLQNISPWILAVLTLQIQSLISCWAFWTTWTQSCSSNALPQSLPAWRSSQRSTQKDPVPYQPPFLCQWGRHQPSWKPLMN

[20] = target: T5, Short transient receptor potential channel 4 (Mus musculus, UniProt Q9QUQ5); assay: mouse TRPC4 channel inhibitors, dose response, cell-based, HEK293 TRPC4/mu-opioid, Fluo-4 calcium (AID 434942); format: functional;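 note: potency of inhibitors blocking the TRPC4 calcium response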
T5 sequence (Q9QUQ5 whole entry): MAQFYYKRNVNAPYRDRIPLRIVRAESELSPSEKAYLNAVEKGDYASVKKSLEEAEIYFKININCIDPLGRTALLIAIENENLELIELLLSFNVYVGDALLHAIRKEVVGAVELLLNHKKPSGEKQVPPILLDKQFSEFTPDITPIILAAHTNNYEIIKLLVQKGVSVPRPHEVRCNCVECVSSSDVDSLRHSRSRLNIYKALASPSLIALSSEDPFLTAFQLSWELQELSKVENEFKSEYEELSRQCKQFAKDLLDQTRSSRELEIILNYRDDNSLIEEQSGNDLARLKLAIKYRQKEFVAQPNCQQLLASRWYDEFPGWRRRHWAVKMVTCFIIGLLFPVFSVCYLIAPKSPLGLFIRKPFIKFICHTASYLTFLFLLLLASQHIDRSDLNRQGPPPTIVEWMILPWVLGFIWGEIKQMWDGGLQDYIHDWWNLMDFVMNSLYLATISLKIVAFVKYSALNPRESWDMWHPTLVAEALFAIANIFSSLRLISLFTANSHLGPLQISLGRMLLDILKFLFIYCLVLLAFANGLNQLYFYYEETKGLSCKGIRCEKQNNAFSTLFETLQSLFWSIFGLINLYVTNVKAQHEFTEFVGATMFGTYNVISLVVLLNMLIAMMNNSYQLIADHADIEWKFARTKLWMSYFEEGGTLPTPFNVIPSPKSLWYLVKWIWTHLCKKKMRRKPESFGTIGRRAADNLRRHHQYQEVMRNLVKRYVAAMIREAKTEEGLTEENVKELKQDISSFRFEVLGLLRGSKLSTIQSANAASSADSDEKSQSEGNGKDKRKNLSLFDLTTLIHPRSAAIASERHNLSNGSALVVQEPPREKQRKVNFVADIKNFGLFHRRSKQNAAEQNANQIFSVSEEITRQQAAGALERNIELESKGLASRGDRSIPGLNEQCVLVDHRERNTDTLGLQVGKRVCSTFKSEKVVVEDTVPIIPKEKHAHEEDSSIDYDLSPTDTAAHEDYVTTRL

[21] = target: Large T antigen (Simian virus 40, UniProt P03070); format: functional, Betapolyomavirus macacae;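 note: Confirmatory-stage PubChem screen for compounds that inhibit SV40 T antigen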
[22] = target: DNA dC->dU-editing enzyme APOBEC-3A (Homo sapiens, UniProt P31941); assay: APOBEC3A DNA deaminase inhibitors, dose response, biochemical (AID 504722); format: functional
[23] = target: DNA dC->dU-editing enzyme APOBEC-3G (Homo sapiens, UniProt Q9HC16); assay: Dose Response confirmation of small molecule APOBEC3G DNA Deaminase Inhibitors via a fluorescence-based single-stranded DNA deaminase assay. [Related pubchem assays (depositor defined):AID493012, AID493028]; format: functional
[24] = target: FAD-linked sulfhydryl oxidase ALR (Homo sapiens, UniProt P55789); assay: inhibitors of human ALR sulfhydryl oxidase, dose response, biochemical, H2O2 detection, luminescence, cherry-pick (AID 493248)
Sequence of FAD-linked sulfhydryl oxidase ALR (P55789 whole entry): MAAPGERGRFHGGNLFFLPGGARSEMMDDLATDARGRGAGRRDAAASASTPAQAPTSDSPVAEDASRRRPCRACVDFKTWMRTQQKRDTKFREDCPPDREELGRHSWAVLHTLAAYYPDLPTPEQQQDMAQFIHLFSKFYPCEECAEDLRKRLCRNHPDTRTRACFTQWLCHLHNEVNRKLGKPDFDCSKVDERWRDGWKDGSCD

Sequence of Cytochrome P450 3A4 (P08684 whole entry): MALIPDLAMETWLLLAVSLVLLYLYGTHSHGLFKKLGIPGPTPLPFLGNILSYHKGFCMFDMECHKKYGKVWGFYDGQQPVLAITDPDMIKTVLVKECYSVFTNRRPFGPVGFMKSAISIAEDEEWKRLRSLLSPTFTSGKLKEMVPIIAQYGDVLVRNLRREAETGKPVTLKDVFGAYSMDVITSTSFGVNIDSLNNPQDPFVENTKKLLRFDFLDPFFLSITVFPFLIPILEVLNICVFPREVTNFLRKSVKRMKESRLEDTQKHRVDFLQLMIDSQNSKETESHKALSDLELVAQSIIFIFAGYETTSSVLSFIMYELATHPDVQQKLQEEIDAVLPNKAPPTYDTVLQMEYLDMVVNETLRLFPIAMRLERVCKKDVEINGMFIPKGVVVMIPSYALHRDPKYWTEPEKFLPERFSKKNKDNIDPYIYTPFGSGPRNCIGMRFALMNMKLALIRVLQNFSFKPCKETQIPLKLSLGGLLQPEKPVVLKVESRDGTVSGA
Sequence of DNA dC->dU-editing enzyme APOBEC-3A (P31941 whole entry): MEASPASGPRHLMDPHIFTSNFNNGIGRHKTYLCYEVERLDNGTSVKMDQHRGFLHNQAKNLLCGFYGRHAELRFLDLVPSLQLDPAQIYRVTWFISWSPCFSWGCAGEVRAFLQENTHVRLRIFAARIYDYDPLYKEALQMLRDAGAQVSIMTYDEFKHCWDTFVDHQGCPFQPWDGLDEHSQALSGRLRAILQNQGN
Sequence of Large T antigen (P03070 whole entry): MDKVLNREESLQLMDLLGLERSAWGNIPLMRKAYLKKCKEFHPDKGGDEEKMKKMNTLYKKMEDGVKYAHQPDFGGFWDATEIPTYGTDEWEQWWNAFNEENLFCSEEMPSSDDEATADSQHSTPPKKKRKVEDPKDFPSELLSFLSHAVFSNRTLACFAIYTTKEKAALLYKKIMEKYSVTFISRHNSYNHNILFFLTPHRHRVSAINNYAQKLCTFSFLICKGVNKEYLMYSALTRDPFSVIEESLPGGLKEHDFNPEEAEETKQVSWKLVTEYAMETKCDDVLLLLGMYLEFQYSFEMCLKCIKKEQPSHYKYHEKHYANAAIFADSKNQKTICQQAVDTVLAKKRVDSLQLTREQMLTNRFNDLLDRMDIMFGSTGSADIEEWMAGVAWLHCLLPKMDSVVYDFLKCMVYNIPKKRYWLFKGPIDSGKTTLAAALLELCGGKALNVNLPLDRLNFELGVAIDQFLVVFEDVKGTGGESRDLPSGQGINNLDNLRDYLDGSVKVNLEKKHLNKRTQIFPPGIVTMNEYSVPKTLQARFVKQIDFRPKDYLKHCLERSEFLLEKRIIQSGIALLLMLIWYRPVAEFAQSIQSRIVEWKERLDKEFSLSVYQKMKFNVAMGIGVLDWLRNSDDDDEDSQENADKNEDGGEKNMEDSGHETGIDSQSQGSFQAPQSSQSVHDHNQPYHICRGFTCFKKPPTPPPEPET
Sequence of Luciferin 4-monooxygenase (P08659 whole entry): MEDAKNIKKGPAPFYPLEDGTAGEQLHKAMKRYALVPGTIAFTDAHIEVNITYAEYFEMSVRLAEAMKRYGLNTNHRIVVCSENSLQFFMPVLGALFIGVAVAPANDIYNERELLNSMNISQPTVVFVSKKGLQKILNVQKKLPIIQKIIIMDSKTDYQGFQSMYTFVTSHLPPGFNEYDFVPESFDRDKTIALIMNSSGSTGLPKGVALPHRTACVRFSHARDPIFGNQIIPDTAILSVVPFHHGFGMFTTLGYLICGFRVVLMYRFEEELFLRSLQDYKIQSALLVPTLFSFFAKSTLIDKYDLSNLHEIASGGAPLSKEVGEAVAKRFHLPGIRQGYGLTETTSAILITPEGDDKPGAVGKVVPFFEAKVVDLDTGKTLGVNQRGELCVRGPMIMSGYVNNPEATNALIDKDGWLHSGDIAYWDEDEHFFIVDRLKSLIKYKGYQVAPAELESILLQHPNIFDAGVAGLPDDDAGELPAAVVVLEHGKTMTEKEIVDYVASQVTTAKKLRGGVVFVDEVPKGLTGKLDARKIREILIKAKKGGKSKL
Sequence of DNA dC->dU-editing enzyme APOBEC-3G (Q9HC16 whole entry): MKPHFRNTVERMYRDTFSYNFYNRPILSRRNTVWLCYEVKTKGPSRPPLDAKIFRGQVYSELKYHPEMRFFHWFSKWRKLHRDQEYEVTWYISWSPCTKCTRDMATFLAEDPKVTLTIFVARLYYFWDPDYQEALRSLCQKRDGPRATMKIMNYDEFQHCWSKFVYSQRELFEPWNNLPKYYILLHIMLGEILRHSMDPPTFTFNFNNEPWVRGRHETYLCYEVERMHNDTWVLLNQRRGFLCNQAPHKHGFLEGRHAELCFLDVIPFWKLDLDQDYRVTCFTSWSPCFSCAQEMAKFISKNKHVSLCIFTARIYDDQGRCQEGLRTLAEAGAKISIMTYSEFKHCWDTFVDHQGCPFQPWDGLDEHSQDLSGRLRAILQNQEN

In the case of `CCOc1cc(C2C(C(=O)c3ccc(C)o3)=C(O)C(=O)N2CCc2ccccc2)ccc1O` (configuration not stated), the Ki [1] was 30.4 µM (inactive).
For `O=C(O)CN(CC(=O)O)Cc1cc2c(-c3ccccc3C(=O)O)c3cc(CN(CC(=O)O)CC(=O)O)c(=O)cc-3oc2cc1O`, the AC50 [2] was 20 µM (inconclusive).
With `COc1ccc(C2=NCC(=O)N(CC(=O)NCc3ccco3)c3sc4c(c32)CCCC4)cc1OC` the CC50 [3] was > 40 µM (active).
In the case of `COc1ccc(CC(=O)N(Cc2cc3cc(OC)ccc3nc2O)C(C)C)cc1`, the EC50 [4] was > 50 µM (active).
For `O=C(Nc1ccc(-c2nc3cccnc3s2)cc1)C1CCCO1` (configuration not stated), the EC50 [5] was 6.46 µM (inconclusive), the EC50 [6] was 6.12 µM (active) and the EC50 [7] was 11.3 µM (active). For the same compound, the EC50 [8] was 4.56 µM (active), the EC50 [9] was 6.36 µM (active) and the EC50 [10] was 4.58 µM (active). The AC50 [11] was > 52 µM (inactive), the AC50 [12] was 1.98 µM (active) and the AC50 [13] was 2.45 µM (active). For the same compound, the AC50 [14] was 38.4 µM (active).
With `COC(=O)[C@@H]1C[C@@]2(O)[C@H](O)[C@H](O)[C@H](O)C[C@H]2N1Cc1c(F)cccc1Cl` the AC50 [2] was 25.1 µM (inconclusive).
For `CCN(c1ccc(C)cc1C)S(=O)(=O)c1nnc(NC(=O)c2ccco2)s1`, the EC50 [15] was 2.15 µM (active), the EC50 [16] was 17.5 µM (active) and the EC50 [17] was 43.1 µM (active). The AC50 [18] was 60.2 µM (active).
For `O=C(Nc1cc(Cl)ccc1O)c1cc2n(n1)C(C(F)(F)F)CC(c1ccc3c(c1)OCO3)N2` (configuration not stated), the “Absolute IC50 (XBP1)” value [19] was 10 µM.
For `CCOC(=O)C(C)(C)N(Cc1ccccc1C)S(=O)(=O)c1ccc(Cl)c([N+](=O)[O-])c1`, the AC50 [18] was 29.8 µM (active).
In the case of `C=CCN(CC(O)c1cccc([N+](=O)[O-])c1)C(C)CCc1ccccc1` (configuration not stated), the EC50 [7] was > 195 µM (not active) and the EC50 [20] was 3.35 µM (active).
With `COc1cc(/C=N/n2c(S)nnc2-c2[nH]nc3c2CCC3)cc(OC)c1O` the IC50 [21] was 24 µM (active), the IC50 [22] was > 100 µM (inactive) and the IC50 [23] was 1.81 µM (active). The AC50 [24] was 0.011 µM (active).
